Calls of active or inactive are those of the source. How the calls were made is not given here.

The test system of the assay is Colo320 viability, CellTiter-Glo luminescence. In words: cytotoxicity toward Colo320 cells – cell-based, CellTiter-Glo luminescence, IC50, dose response (AID 1117334). A general note: ATP-based viability assays read luminescence as a measure of living cells.
In general, IC50 refers to the concentration at which inhibition is half-maximal. In the case of `CC(=O)[O][Hg][c]1ccccc1`, the IC50 is 1300 nM.

On to `OCCN1CCN(CC/C=C2/c3ccccc3Sc3ccc(C(F)(F)F)cc32)CC1`, for which the IC50 was 2310 nM.

With `CCCCCCCCCCCCCC[N+](C)(C)C`, the IC50 was 2520 nM.

Regarding `Cn1cnc([N+](=O)[O-])c1Sc1ncnc2nc[nH]c12`, the IC50 was 10300 nM (inactive).

Regarding `CO[C@@]12[C@H](COC(N)=O)C3=C(C(=O)C(C)=C(N)C3=O)N1C[C@@H]1N[C@@H]12`, the IC50 is 12600 nM (inactive).

Regarding `O=C(O)C1(C(=O)O)CCC1.[NH2-].[NH2-].[Pt+2]`, the IC50 was > 20000 nM (inactive).

Consider `Cc1ccc([N+](=O)[O-])[c]2c1[O][Hg]2`, for which the IC50 was 935 nM.

Take `O=C1[O][Bi][O]c2ccccc21`: the IC50 is > 20000 nM (inactive).

`CCN(CC)CCCC(C)Nc1c2ccc(Cl)cc2nc2ccc(OC)cc12` (stereo unspecified): the IC50 was 8440 nM (inactive).

`O=Cc1ccc(O)c(O)c1O`: the IC50 was 9080 nM (inactive).

`CC(C)n1c(/C=C/[C@@H](O)C[C@@H](O)CC(=O)O)c(-c2ccc(F)cc2)c2ccccc21`: the IC50 is 13000 nM (inactive).

For the origin of these results see PubChem BioAssay AID1117334 (Cheminformatics & Chemogenomics Research Group (CCRG), …, 2015).
